Assay results taken from patent US20030100508A1, “Carbohydrate epitope mimic compounds and uses thereof” (priority 1999, published 2003).

Key:
[1] = L2 glycolipid binding to immobilized CD4 peptide; conditions: L2 glycolipid 3 μg/ml, detected with L2-412
Description: The ability of isolated L2/HNK-1 glycolipid to bind to immobilized CD-4 peptide was tested. CD-4 peptide was immobilized in water at different concentrations and dried onto microtiter plates overnight. The microtiter plates were blocked with 1% BSA in PBS, incubated with 3 ug/ml L2 glycolipid for 1.5 hours at room temperature, and washed with PBS. Bound L2 glycolipid was detected with L2-412 antibody followed by HRP-linked secondary antibody.
It was determined whether L2 glycolipid could bind substrate coated CD-4 peptide. CD4 peptide was coated onto microtiter plates by coating with serial dilutions of CD4 peptide (1 mg/ml 1:1 in EtOH) and allowed to dry overnight. The wells were incubated with L2-glycolipid (3 μg/ml) for 1 hour at RT, L2-412 antibody (1: 1000) then added and further incubated for 3 hours at RT. Goat anti-rat antibody was then added, incubated 2 hours at RT and detected by HRP-linked secondary antibody.
The CD-4 peptide was conjugated to Ovalbumin (by similar methods as for BSA conjugation described in Materials and Methods) to generate CD4-OV, and binding experiments were performed to assess binding of conjugated peptide to laminin and L2 glycolipid. In particular, it was necessary to confirm that CD4 peptide and laminin compete directly in binding to L2/HNK-1 glycolipids. […]

laminin = biological target: T1, laminin (Mus musculus, UniProt P19137); test: Competition of L2 glycolipid binding to immobilized laminin by CD4 peptide; conditions: L2 glycolipids 3 μg/ml, varying CD-4 peptide
T1 construct: purchased Gibco/BRL
Description: The CD-4 peptide was conjugated to Ovalbumin (by similar methods as for BSA conjugation described in Materials and Methods) to generate CD4-OV, and binding experiments were performed to assess binding of conjugated peptide to laminin and L2 glycolipid. In particular, it was necessary to confirm that CD4 peptide and laminin compete directly in binding to L2/HNK-1 glycolipids. In this set of experiments, microtiter plates were coated with serial dilutions of either CD4-OV or laminin (each 10 μg/ml 1:1 in EtOH, allowed to dry overnight). The coated plates were then incubated in the following combinations: (a) CD4-OV coated plates with L2 glycolipid (3 μg/ml, 1 hr, RT); (b) laminin coated plates with L2 glycolipid (3 μg/ml. 1 hr, RT); and (c) laminin coated plates with CD-4-OV (1 μg/ml) and L2 glycolipids (3 μg/ml) for 1 hr at RT. Similar to the previous set of experiments L2-412 antibody was added (1:1000, 3 hr, RT), followed by HRP-conjugated-goat anti-rat antibody (2 hrs, RT) and detection by HRP-linked secondary antibody. The results (not shown) confirmed that CD4 peptide and laminin compete directly in binding to L2/HNK-1 glycolipids.
To further assess whether the CD-4 peptide could inhibit L2 glycolipid binding to laminin, a fixed amount of L2 glycolipid was incubated with immobilized laminin, in the presence of varying concentrations of CD-4 peptide. […]

RASSSKSWITFDLKNKEVSVK [CD4 peptide]
L2 glycolipid binding to immobilized CD4 peptide (words) [1]: binds to CD4 peptide in a concentration-dependent manner | L2 glycolipid binding to immobilized CD4 peptide (words) ([1]; listed as CD-4 peptide): binds L2 glycolipid in a concentration dependent manner | competition of L2 glycolipid binding to immobilized laminin (laminin): competes with L2 glycolipid binding to immobilized laminin in a concentration-dependent manner
